One may read the IC50 as the concentration that gives 50% inhibition. As usually defined, the CC50 is the concentration at which the toxic effect on the cells reaches its halfway point.

The values that follow come from US5786480A, “4-substituted pyrazoloquinoline derivatives” (Schering Corporation, priority 1996, dated 1998).

Data set [1] relates to HSV Early Gene Expression. The data set can be described thus: Transient Expression Assay for Effects Against HSV Early Gene Expression (beta Galactosidase Assay, βgal). In kind it is cell-based. The method, then: (§1) The compound toxicity assay (3H-LEU), Plaque Reduction Assay for HSV Antiviral Activity (Plaque), and Transient Expression Assay for Effects Against HSV Early Gene Expression (β Galactosidase Assay or βgal) were carried out as set forth in U.S. Pat. No. 5,175,151 which is hereby incorporated by reference.

Data set [2] relates to HSV. Put plainly: Plaque Reduction Assay for HSV Antiviral Activity (Plaque). The class given is cell-based. Here is the method: as §1
For orientation: In a plaque reduction assay, fewer plaques than in the control indicate reduced infectivity or spread.

The nature of data set [3]: compound toxicity assay (3H-LEU). In kind it is cell-based. The method, then: as §1
Data set [4] concerns HSV-1. Conditions: Haines et al., U.S. Pat. No. 4,757,088; cited from earlier work.
Data set [5] deals with herpes virus. The settings on record: mammals; Haines et al., U.S. Pat. No. 4,757,088; cited from earlier work.
Data set [6] relates to HSV-2. The settings on record: Haines et al., U.S. Pat. No. 4,757,088; cited from earlier work.
The subject of data set [7] is HSV. The settings on record: humans; Haines et al.; cited from earlier work.
For data set [8], the system named is herpes virus. Conditions: addition of panthothenic acid or its alcohol and salt forms, dexpanthenol and pantothenate; Haines et al.; cited from earlier work.

Converted amounts (≈) assume the structure as drawn. Bounds are passed on as bounds.

With `COc1ccc2nc3[nH]nc(C)c3c(NCCOCCO)c2c1` [(1)], half-maximal inhibition in data set [1] (IC50) was put at 5 µg/mL (≈ 15.8 µM).
Consider `COc1ccc2nc3[nH]nc(C)c3c(NCCO)c2c1` [(3)], for which the IC50 in data set [2] came to 2.3 µg/mL (≈ 8.45 µM); in data set [1], 1.3 µg/mL (≈ 4.77 µM). The CC50 in data set [3] came out at 8.2 µg/mL (≈ 30.1 µM).
With `COc1ccc2nc3[nH]nc(C)c3c(NCCN3CCOCC3)c2c1` [(4)], the concentration for half-maximal inhibition (IC50) in data set [2] was determined as 10 µg/mL (≈ 29.3 µM); in data set [1] it was 20 µg/mL (≈ 58.6 µM). In addition, the midpoint of cytotoxicity in data set [3], the CC50, lay at 100 µg/mL (≈ 293 µM).
Turning to `COc1ccc2nc3[nH]nc(C)c3c(NCCc3ccccn3)c2c1` [(5)], the figures for the IC50 in data set [2] and in data set [1] were 7.5 µg/mL (≈ 22.5 µM) and 1 µg/mL (≈ 3 µM), respectively.
Turning to `CCCCNc1c2cc(OC)ccc2nc2[nH]nc(C)c12` [(17)], the CC50 in data set [3] was determined as 3.2 µg/mL (≈ 11.3 µM). Also, in data set [1], the IC50 was under 3 µg/mL.
The like results for `CCCCNc1c2cc(C)ccc2nc2[nH]nc(C)c12` [(18)] were, in that order, 21.5 µg/mL (≈ 80.1 µM) and 3 µg/mL (≈ 11.2 µM).
In data set [3], `CCCCNc1c2cc(OC)cc(C)c2nc2[nH]nc(C)c12` [(19)] yielded a CC50 of 21.5 µg/mL (≈ 72.1 µM). The molecule also gave an IC50 in data set [1] of 3 µg/mL (≈ 10.1 µM).
Regarding `COc1ccc2nc3[nH]nc(C)c3c(NCCCN(C)C)c2c1` [(20)], the IC50 in data set [1] is 0.8 µg/mL (≈ 2.55 µM).
In the case of `COc1ccc2nc3c(cc2c1)c(C)nn3C(=O)[C@@H](N)C(C)C` [(21)], the IC50 in data set [2] came out at 20 µg/mL (≈ 64 µM); in data set [1], 0.2 µg/mL (≈ 0.64 µM).
The like results for `COc1ccc2nc3c(cc2c1)c(C)nn3C(=O)[C@H](C)N` [(22)] were, in that order, 0.2 µg/mL (≈ 0.703 µM) and 0.2 µg/mL (≈ 0.703 µM).
On to `COc1ccc2nc3c(c(C)nn3C(=O)[C@@H](N)C(C)C)c(NCCN3CCOCC3)c2c1` [(23)], for which the IC50 in data set [2] amounted to 20 µg/mL (≈ 45.4 µM); in data set [1], 0.2 µg/mL (≈ 0.454 µM).
For `CNCC(=O)n1nc(C)c2cc3cc(OC)ccc3nc21` [(24)] the same measures were 2 µg/mL (≈ 7.03 µM) and 0.2 µg/mL (≈ 0.703 µM).
With `COc1ccc2nc3c(cc2c1)c(C)nn3C(=O)C(C)(C)N` [(25)], the figures for the IC50 in data set [2] and in data set [1] were 20 µg/mL (≈ 67 µM) and 0.2 µg/mL (≈ 0.67 µM), respectively.
`COc1ccc2nc3[nH]nc(C)c3c(NCC(=O)O)c2c1` [(27)] yielded an IC50 in data set [1] of 20 µg/mL (≈ 69.9 µM).
Consider `COc1ccc2nc3[nH]nc(C)c3c(NCC(=O)NCCCN3CCCC3=O)c2c1` [(28)], for which the IC50 in data set [2] was determined as 20 µg/mL (≈ 48.7 µM); in data set [1] it was 2 µg/mL (≈ 4.87 µM).
With `COc1ccc2nc3[nH]nc(C)c3c(NCC(=O)NCCN3CCCCC3)c2c1` [(29)], the values for the IC50 in data set [2] and in data set [1] were 20 µg/mL (≈ 50.4 µM) and 6 µg/mL (≈ 15.1 µM), respectively.
In the case of `COc1ccc2nc3[nH]nc(C)c3c(NCC(=O)NCCN3CCOCC3)c2c1` [(30)], the values for the IC50 in data set [2] and in data set [1] were 20 µg/mL (≈ 50.2 µM) and 2 µg/mL (≈ 5.02 µM), respectively.
Turning to `CCC(C)[C@H](N)C(=O)n1nc(C)c2c(Cl)c3cc(OC)ccc3nc21` (some centres unmarked) [(31)], the IC50 in data set [2] came to 0.8 µg/mL (≈ 2.22 µM); in data set [1], 0.2 µg/mL (≈ 0.554 µM).
Consider `COc1ccc2nc3c(c(C)nn3C(=O)[C@H](C)N)c(Cl)c2c1` [(32)], for which the IC50 in data set [2] was found to be 0.2 µg/mL (≈ 0.627 µM); in data set [1] it was 1.8 µg/mL (≈ 5.65 µM).
The like results for `COc1ccc2nc3c(c(C)nn3C(=O)[C@@H](C)N)c(Cl)c2c1` [(33)] were, in that order, 0.2 µg/mL (≈ 0.627 µM) and 0.5 µg/mL (≈ 1.57 µM).
For the molecule `CCN(CC)CC(=O)Nc1c(C)cccc1C` [lidocaine, 2-(diethylamino)-N-(2,6-dimethylphenyl)acetamide], in data set [4], the “antiviral agent in cell culture against HSV-1” value is “antiviral agent in cell culture against HSV-1”. The “able to treat herpes virus infections” value in data set [5] is recorded as “able to treat herpes virus infections of mammals”. The “antiviral agent in cell culture against HSV-2” value in data set [6] was “antiviral agent in cell culture against HSV-1 and HSV-2”. Also, the “effective in the treatment of HSV oral and genital lesions” value in data set [7] is “particularly effective”. In addition, in data set [8], the “enhancement of antiviral activity” value is given as “significantly enhances”.
